In patent US7745446B2, “Pyrazolo[1,5-c]pyrimidines” (Bayer Schering Pharma Aktiengesellschaft, priority 2004, dated 2010):

How the values were obtained:
[1] = tested on: phosphorylated Akt1 (Ser473) in MCF7 cells; test: Cellular PI3K/Akt pathway assay (pAkt-ELISA); assay type: cell-based; details: Homo sapiens, β-Heregulin stimulation, 48 h, read-out: Akt pathway inhibition (pAkt-ELISA): IC50
Description: In order to study the cellular activity of the compounds according to the invention, an ELISA-based assay has been established. The assay is based on a Sandwich ELISA kit (PathScan™ Phospho-Akt1 (Ser473); Cell Signaling, USA; #7160).
The assay detects endogenous levels of phosphorylated Akt1 protein. A phospho-Akt (Ser473) antibody (Cell Signaling, USA; #9271) has been coated onto the microwells. After incubation with cell lysates, the phosphorylated Akt protein is captured by the coated antibody. Following extensive washing, Akt1 monoclonal antibody (Cell Signaling, USA; #2967) is added to detect the captured phospho-Akt1 protein. HRP-linked anti-mouse antibody (Cell Signaling, USA; #7076) is then used to recognize the bound detection antibody. HRP substrate (=TMB; Cell Signaling, USA; #7160) is added to develop colour. The magnitude of optical density for this developed color is proportional to the quantity of phosphorylated Akt1 protein.
MCF7 cells (ATCC HTB-22) are seeded into 96 well fate bottom plates at a density of 10000 cells/well. 24 hours after seeding the cells are starved using estrogen-free medium (IMEM including 0.1% charcoal treated FCS). […] To stimulate Akt phosphorylation, β-Heregulin (20 ng/ml) is added in parallel to the compounds. Wells containing unstimulated control cells (no β-Heregulin stimulation) are incubated with or without the diluted compound. Wells containing untreated control cells (no compound) are filled with medium containing 0.5% v:v DMSO and are with P-Heregulin or are not stimulated.
Cells are harvested under nondenaturating conditions and lysed with brief sonification in 1× cell lyses buffer (20 mM Tris (pH7.5), 150 mM NaCl, 1 mM ethylene diaminetetraacetate (EDTA), 1 mM ethylene glycolbis-(2-aminoethyl)-N,N,N′,N′-tetraacetic acid (EGTA), 1% Triton X-100, 2.5 mM sodium pyrophosphate, 1 mM β-glycerolphosphate, 1 mM Na3VO4, 1 μg/ml leupeptin). The lysate is microcentrifuged for 10 minutes at 4° C. and the supernatant is transferred to a new tube. 100 μl of sample diluent (0.1% tween-20, 0.1% sodium azide in 20× PBS) are added to a microcentrifuge tube and 100 μl of cell lysate are transferred into the tube and vortexed. 100 μl of each diluted cell lysate are added to the appropriate well (phospho-Akt (Ser473) antibody coated microwells; Cell Signaling, USA; #7160) and incubated overnight at 4° C. The plates are washed 4 times with 1× wash buffer (1% tween-20, 0.33% thymol, in 20×PBS). Then 100 μl of detection antibody (Akt1 (2H10) monoclonal detection antibody; Cell Signaling, USA; #2967) are added to each well and incubated for 1 h at 37° C. The washing procedure is repeated between each step. […] The absorbance is read at 450 nm (Wallac Victor2; Perkin Elmer, USA) within 30 minutes after adding STOP solution. […]

[2] = molecular target: T1, full-length Akt1 (inactive) (Homo sapiens, UniProt P31749); test: Biochemical Akt1 assay (full-length Akt1 inactive, PDK1-dependent activation, IMAP); details: PDK1 and PIP3 vesicles, 50 μM ATP; read-out: Inhibition of Akt1 activation (full-length Akt1, inactive): IC50
T1 construct: recombinant full-length human Akt1 a containing N-terminal His6 tag; His6 (N); purchased Upstate, UK #14-279; host or cells: baculovirus infected Sf21 insect cells
Description: The enzyme is purified using Ni2+/NTA-agarose (Upstate, UK; #14-279).
The enzyme is purified using Ni2+/NTA-agarose.
PDK1-dependent activation and subsequent enzymatic activity of Akt1: Activity of purified human Akt1 is routinely measured in an assay in which the enzyme is first activated by PDK1 in the presence of phosphatidylinositol-3,4,5-triphosphate (PIP3). Once activated, Akt1-dependent phosphorylation of a fluorescence labelled peptide substrate is measured by fluorescence polarisation using the IMAP technology (Molecular Devices).
The phospholipids are prepared as follows: 5 mg DOPC/DOPS are solved in 200 μl 10 mM Tris (pH 7.4) and 300 μg PIP3 are resuspended in 950 μl 10 mM Tris (pH 7.4) by pipetting. 950 μl solved PIP3 are mixed with 50 μl solved DOPC/DOPS and incubated for 2 h at a temperature below 20° C. Then the mixture is subjected to sonification for 30 min. at max. power until a translucent phopholipid vesicle preparation is obtained. Aliquots of the vesicle suspension are frozen at -80° C. until needed, likewise the solved DOPC/DOPS.
Assays are performed in 384-well plates. Incubations are carried out for 60 min. at room temperature. The reaction buffer mixture contained in a final volume of 25 μl: 10 mM Tris pH 7,4, 10 mM MgCl2. 1 mM DTT, and 0.1 mg/ml BSA. In contrast the activation buffer contained: 50 ng/well Akt1, 20 ng/well PDK1, 1.25 μM peptide substrat, 50 μM ATP, and phospholipid vesicles (1:20). Test compounds are added from stock solutions in DMSO before activation of Akt1 by PDK1. After the incubation the beads (IMAP binding reagent; Molecular Devices; 1:167) are added and the fluorescence polarization is measured (excitation 485 nm, emission 530 nm).

T1 sequence (P31749 whole entry): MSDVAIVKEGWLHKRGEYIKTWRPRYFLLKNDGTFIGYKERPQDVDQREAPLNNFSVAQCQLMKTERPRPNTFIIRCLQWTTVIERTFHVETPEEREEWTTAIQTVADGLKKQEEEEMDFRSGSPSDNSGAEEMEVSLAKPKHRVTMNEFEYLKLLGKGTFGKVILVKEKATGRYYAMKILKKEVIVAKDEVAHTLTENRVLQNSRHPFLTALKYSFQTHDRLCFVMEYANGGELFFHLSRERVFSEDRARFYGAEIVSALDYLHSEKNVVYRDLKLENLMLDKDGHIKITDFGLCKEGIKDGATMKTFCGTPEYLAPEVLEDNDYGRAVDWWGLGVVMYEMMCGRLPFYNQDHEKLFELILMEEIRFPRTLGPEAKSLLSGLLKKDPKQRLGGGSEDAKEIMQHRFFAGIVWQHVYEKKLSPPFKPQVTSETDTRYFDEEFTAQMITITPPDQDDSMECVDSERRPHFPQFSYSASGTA

Row | SMILES | IC50 [1] [µM] | IC50 [2] [µM]
1 | O=C(Nc1cccc(Nc2nc(-c3cccc4c3oc3ccccc34)cc3ccnn23)c1)c1ccc2c(c1)CCNC2 [Example 63, 1,2,3,4-Tetrahydro-isoquinoline-6-carboxylic acid [3-(5-dibenzofuran-4-yl-pyrazolo[1,5-c]pyrimidin-7-ylamino)-phenyl]-amide] | ≤ 6 | ≤ 5
2 | NCCCC(=O)Nc1ccc(Nc2nc(-c3cccc4c3oc3ccccc34)cc3ccnn23)cc1 [Example 24, 4-Amino-N-[4-(5-dibenzofuran-4-yl-pyrazolo[1,5-c]pyrimidin-7-ylamino)-phenyl]-butyramide] | ≤ 6 | ≤ 5
3 | COc1cccc(-c2ccc(-c3cc4c(Br)cnn4c(Nc4ccc(NC(=O)c5ccc(CN)cc5)cc4)n3)cc2)c1 [Example 87, 4-Aminomethyl-N-{4-[3-bromo-5-(3′-methoxy-biphenyl-4-yl)-pyrazolo[1,5-c]pyrimidin-7-ylamino]-phenyl}-benzamide] | ≤ 6 | ≤ 5
4 | COc1cccc(-c2ccc(-c3cc4ccnn4c(Nc4ccc(NC(=O)c5ccc(CN)cc5)cc4)n3)cc2)c1 [Example 59, 4-Aminomethyl-N-{4-[5-(3′-methoxy-biphenyl-4-yl)-pyrazolo[1,5-c]pyrimidin-7-ylamino]-phenyl}-benzamide] | ≤ 6 | ≤ 5
